Tests used:
[1] = test system: NSCLC cell lines (LLC, H1650 and A549); experiment: Cell Titer-Glo cell viability assay; format: cell-based, mouse (LLC), human (H1650; settings: 48 h, range over LLC
Procedure: FIGS. 1A-lE depict that WFA induces ER stress-mediated apoptosis in NSCLC cell lines. (FIG. 1A) NSCLC cells were plated on 96-well plates and treated with different concentrations of WFA ([…]) in triplicates. Forty-eight hours post-treatment, cell viability was determined using Cell Titer-Glo assay. Luminescence values were normalized to control untreated cells and IC50 values are represented as the mean of two independent experiments ±SEM. (FIG. 1B) NSCLC cells were treated WFA for forty-eight hours, then collected to measure apoptotic cell death using Annexin V assay in LLC cells, H1650 cells, and A549 cells. Percentages of early (annexin*DAPI-) and late (annexin*DAPI+) apoptotic cells are represented as means of two separate experiments ±SEM and statistical significance was calculated using one-way ANOVA and a Fisher LSD post hoc test was used to compare the mean of each group to that of the control group. […] The quantification of western blot band density was performed using Image J software v.1.54d and normalized to housekeeping control protein in LLC cells (0-actin). […]
LLC, H1650, or A549 was plated in 96-well plates and treated with WFA (serialdilutions 10-0.078 μM) in triplicates. […] Forty-eight hours after treatment, cell viability was determined using Cell Titer-Glo assay (Promega, Madison, WI, USA) according to the manufacturer's instructions. […]

[2] = test system: PD-L1 in NRF-2 knockdown LLC or H1650 cells; experiment: NRF-2 siRNA knockdown then WFA, PD-L1 by flow cytometry; format: cell-based, mouse (LLC), human (H1650); settings: WFA 24 h after siRNA, similar to scramble controls
LLC flank tumors = experiment: LLC syngeneic mouse model, tumor growth; format: in vivo, C57BL/6 mice; settings: i.p. every other day, five treatments; WFA 5 mg/kg, α-PD-L1 200 μg/mouse
Procedure: FIGS. 5A-5G depict that WFA sensitizes flank tumors to α-PD-L1 therapy and targets immunosuppressive MDSCs and T-regs. (FIG. 5A) Establishment of LLC flank tumors and treatment schedule. (FIG. 5B) Tumor volume measurement in mm^3 and tumor weight at the endpoint of the experiment. (FIG. 5C) Change in the levels of ecto-CRT in tumors was measured using flow cytometry. (FIGS. 5D-5G) Flow cytometry was used to determine the change in immune cell infiltration in collected tumors. […] Moreover, WFA reduced the immunosuppressive T regs (FIG. 5F) and CD11b+Gr1+MDSC (FIG. 5G) populations. The means of two independent experiments ±SEM are shown, and the statistical significance was calculated using one-way ANOVA and a Fisher LSD post hoc test where * and #represent p<0.05 and ** and ##represent p<0.01. * Symbols refer to the difference between the vehicle control and WFA, while #refers to comparisons between the vehicle control and WFA+α-PD-L1 combination.
C57BL/6 mice were purchased from the Jackson Laboratory (Bar Harbor, ME, USA) and acclimated for a week. To establish the LLC syngeneic tumors, C57BL/6 mice were injected with a half million cells on the right flank and monitored until tumors were first palpable (2-3 mm diameter). […] Tumor volumes (mm^3) were calculated using the equation (length^2 x width/2), where the length is defined as the bigger tumor dimension. […]

[3] = test system: immunosuppressive MDSC population; settings: mouse, in vivo; cited from earlier work

In the case of `CC1=C(CO)C(=O)O[C@@H]([C@@H](C)[C@H]2CC[C@H]3[C@@H]4C[C@H]5O[C@]56[C@@H](O)C=CC(=O)[C@]6(C)[C@H]4CC[C@]23C)C1` [WFA, Withaferin A], the IC50 [1] is reported as 500 to 1500 nM, the “PD-L1 in NRF-2 knockdown cells” value [2] is reported as “still upregulated” and the “tumor size / tumor growth” value (LLC flank tumors) is reported as “non-significant reduction”. For the same compound, the “MDSC tumor infiltration and immunosuppressive function” value [3] was “reducing”.
